The term EC50 denotes the concentration that produces a half-maximal response. For orientation: AC50 means the concentration giving half of the maximal activity seen.

The record followed here is ChEMBL document CHEMBL1201862, “PubChem BioAssay data set” (2004).

Assay [1] is described as follows: Trypanosoma cruzi growth suppression in host cells – NIH3T3 host cells, beta-gal luminescence, confirmation (AID 2044).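 Also: intracellular parasites grown in NIH/3T3 mouse fibroblasts as host cells; luminescent beta-galactosidase reporter signal from transgenic T. cruzi replicating inside host cells; inhibitors lower the luminescence signal.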 Format: functional, cell-based.
A short description of assay [2]: NIH3T3 cell viability loss – ATP luminescence, mouse fibroblasts, counter-screen, dose response (AID 2010).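 Also: cells exposed to compound for about 90 hours before reading.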 Format: functional, cell-based. On the technique in general: Counterscreens check selectivity or assay interference.
A further assay concerns the target Cytochrome P450 3A4 (Homo sapiens, UniProt P08684).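 Also: CYP3A4 tested as one member of a cytochrome P450 panel screen.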
The next assay deals with T1, Cytochrome P450 1A2 (Homo sapiens, UniProt P05177).
T1 sequence (P05177 whole entry): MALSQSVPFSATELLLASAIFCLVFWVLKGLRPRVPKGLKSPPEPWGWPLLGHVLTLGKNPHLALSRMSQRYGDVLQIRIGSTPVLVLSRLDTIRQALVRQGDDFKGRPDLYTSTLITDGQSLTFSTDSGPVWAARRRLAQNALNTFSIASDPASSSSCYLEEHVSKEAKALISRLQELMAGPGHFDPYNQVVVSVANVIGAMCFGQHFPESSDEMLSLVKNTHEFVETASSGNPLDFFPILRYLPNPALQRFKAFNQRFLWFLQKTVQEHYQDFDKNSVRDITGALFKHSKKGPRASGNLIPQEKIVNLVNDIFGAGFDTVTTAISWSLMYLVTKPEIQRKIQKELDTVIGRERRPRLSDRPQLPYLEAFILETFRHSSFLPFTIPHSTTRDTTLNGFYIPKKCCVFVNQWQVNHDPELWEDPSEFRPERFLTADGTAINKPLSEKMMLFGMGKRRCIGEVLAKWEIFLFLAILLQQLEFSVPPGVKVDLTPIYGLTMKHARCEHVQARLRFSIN

Another assay concerns the target Cytochrome P450 2C9 (Homo sapiens, UniProt P11712).
For assay [3], the system named is Streptococcus sp. 'group A'. The experiment in a line: Streptococcus pyogenes SK(-)GAS viability under kanamycin – luminescence, BacTiterGlo, confirmation, counter-screen for streptokinase expression inhibitor project, dose response (AID 1900). Format: functional, organism-based.
Another assay deals with Streptococcus. As to the kind of experiment: GAS UMAA2166 growth inhibition – luminescence, BacTiterGlo, counter-screen for streptokinase expression inhibitor project, dose response (AID 1915).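 Also: potency for reduction of bacterial viability or growth.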 The format is functional, organism-based.
Assay [4] in a line: luciferase reporter signal suppression in cells – H4 neuroglioma cells, luminescence, dose response (AID 1990). The format is functional, cell-based. Background: Reporter assays use an easily measured gene product as a stand-in for the process of interest.

Each structure is given as a SMILES string. Activity calls are given as the source filed them.

Chain of Cytochrome P450 2C9 (P11712 whole entry): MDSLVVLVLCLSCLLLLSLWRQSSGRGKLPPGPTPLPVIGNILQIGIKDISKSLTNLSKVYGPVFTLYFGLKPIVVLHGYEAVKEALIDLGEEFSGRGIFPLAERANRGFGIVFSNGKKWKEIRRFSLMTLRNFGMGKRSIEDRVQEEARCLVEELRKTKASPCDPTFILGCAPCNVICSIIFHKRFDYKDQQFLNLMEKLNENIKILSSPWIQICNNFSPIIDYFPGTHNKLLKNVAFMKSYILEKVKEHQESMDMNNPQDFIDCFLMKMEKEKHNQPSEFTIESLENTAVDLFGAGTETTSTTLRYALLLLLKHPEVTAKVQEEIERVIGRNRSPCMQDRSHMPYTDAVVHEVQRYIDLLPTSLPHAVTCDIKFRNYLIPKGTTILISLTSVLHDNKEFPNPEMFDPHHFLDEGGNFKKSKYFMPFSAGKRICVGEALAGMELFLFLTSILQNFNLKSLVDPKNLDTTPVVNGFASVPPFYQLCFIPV
Chain of Cytochrome P450 3A4 (P08684 whole entry): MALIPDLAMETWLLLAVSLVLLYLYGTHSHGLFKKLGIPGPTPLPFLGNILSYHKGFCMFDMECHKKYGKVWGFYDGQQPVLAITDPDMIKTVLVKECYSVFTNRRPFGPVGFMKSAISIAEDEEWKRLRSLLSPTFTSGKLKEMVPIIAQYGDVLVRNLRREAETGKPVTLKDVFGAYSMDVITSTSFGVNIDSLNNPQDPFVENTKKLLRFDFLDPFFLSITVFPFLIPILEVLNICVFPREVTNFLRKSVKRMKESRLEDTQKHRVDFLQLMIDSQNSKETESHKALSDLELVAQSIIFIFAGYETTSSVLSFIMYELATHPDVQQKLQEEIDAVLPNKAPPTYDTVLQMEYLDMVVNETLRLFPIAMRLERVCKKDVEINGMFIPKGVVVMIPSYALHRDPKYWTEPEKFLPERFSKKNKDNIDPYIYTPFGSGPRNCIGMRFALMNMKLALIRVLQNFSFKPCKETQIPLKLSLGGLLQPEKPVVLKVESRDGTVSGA

Consider `CN1CCN(/N=C/c2ccc(-c3ccc([N+](=O)[O-])cc3)o2)CC1`, for which the figures for the half-maximal effective concentration (EC50) in assay [1] and in assay [2] were 1.11 µM (active) and > 60 µM (not active), respectively.

Regarding `N#C/C(=C\c1cc([N+](=O)[O-])c(N2CCCCC2)cc1N1CCCCC1)c1nn(-c2ccccc2)c(N)c1C#N`, on Cytochrome P450 3A4, the concentration at half-maximal activity (AC50) was 2.24 µM (inconclusive).

In the case of `Cc1cccc(N(CC(=O)NC2CCCC2)C(=O)c2cc3cc4cccc(C)c4nc3s2)c1C`, the values for the EC50 in assay [1] and in assay [2] were 1.6 µM (active) and > 60 µM (not active), respectively. Turning to `COc1c(F)c(F)c(C(=O)O)c(Nc2ccc(C)cc2)c1F`, at Cytochrome P450 1A2, the AC50 is 22.4 µM (inconclusive). On to `COc1cc2c(C(=O)N3CCN(C)CC3)c(C)n(-c3ccccc3)c2cc1Br`, for which the AC50 at Cytochrome P450 1A2 was 25.1 µM (inconclusive); at Cytochrome P450 2C9, 22.4 µM (inconclusive). As for `Cc1cccc(Nc2nc(-c3ccncc3)cs2)c1`, the concentration for a half-maximal effect (EC50) in assay [1] is 0.154 µM (active); in assay [2] it was 6.1 µM (active). On to `COc1ccc(-c2cc3ncnc(Cl)c3s2)cc1`, for which the figures for the EC50 (in assay [3]; with Streptococcus) were 9.73 µM (active) and 26 µM (active), respectively. On to `C=CCNc1cnn(-c2ccc(C)cc2)c(=O)c1Cl`, for which, at Cytochrome P450 1A2, the AC50 is 28.2 µM (inconclusive). As to `CCNCc1cc(OCC)c(OCC(=O)NCCc2ccccc2)cc1Cl`, the half-maximal activity concentration (AC50) on Cytochrome P450 2C9 was 20 µM (inconclusive). In the case of `CC(=O)Nc1cccc(NC(=O)C2CCCN2C(=O)Nc2ccccc2C)c1` (configuration not stated), the results for the concentration at half-maximal activity (AC50) at Cytochrome P450 1A2 and on Cytochrome P450 2C9 were 25.1 µM (inconclusive) and 20 µM (inconclusive), respectively.

For `CC(=O)c1cccc(NC(=O)CSCc2ccccc2)c1`, the figures for the AC50 at Cytochrome P450 3A4 and on Cytochrome P450 2C9 were 28.2 µM (inconclusive) and 7.94 µM (inconclusive), respectively. With `N[C@H](C(=O)O)[C@H](O)C(=O)O`, the results for the half-maximal activity concentration (AC50) at Cytochrome P450 3A4 and on Cytochrome P450 1A2 were 0.0316 µM (inconclusive) and 39.8 µM (inconclusive), respectively. For `CCCNC(=O)OC[C@@H]1O[C@H](CCO/N=C2\c3cc(OC)ccc3O[C@H](c3cccc(OC)c3)[C@H]2O)C=C[C@@H]1Oc1ccc(OC)cc1`, the half-maximal activity concentration (AC50) on Cytochrome P450 2C9 was 6.31 µM (inconclusive).

Regarding `CCOC(=O)CNS(=O)(=O)c1cc(-c2nn(C)c(=O)c3ccccc23)ccc1C`, the AC50 on Cytochrome P450 3A4 is 39.8 µM (inconclusive). With `Cc1nc(SC2CC(=O)N(c3ccc([N+](=O)[O-])cc3)C2=O)nc2c1CCCC2` (configuration not stated), the concentration at half-maximal activity (AC50) was 20 µM (inconclusive) on Cytochrome P450 3A4 and 11.2 µM (inconclusive) on Cytochrome P450 2C9. As to `Cc1ccc(-c2cc(C(F)F)n3ncc(C(=O)N4CCN(c5ccccn5)CC4)c3n2)cc1`, the EC50 was 0.5 µM (active) in assay [1] and > 60 µM (not active) in assay [2]. For the compound `CCc1ccc(OCCNC(=O)c2ccccc2SCc2ccc(F)cc2)cc1`, the concentration giving a half-maximal response (EC50) in assay [1] is 2.67 µM (active); in assay [2], > 60 µM (not active). For `COc1ccc(OC)c(NC(=O)c2cc3n(n2)C(C(F)(F)F)CC(c2ccc4c(c2)OCO4)N3)c1` (configuration not stated), the AC50 on Cytochrome P450 2C9 is 0.794 µM (inconclusive).

As to `OCCNCCCOc1cccc(Cl)c1Cl`, the AC50 at Cytochrome P450 3A4 is 31.6 µM (inconclusive). `CC(C)(CO)N1CCN(C(S)=Nc2ccccc2)CC1`: the AC50 at Cytochrome P450 1A2 was 6.31 µM (inconclusive). Consider `O=C(Nc1nnc(C2=COCCO2)o1)c1ccc(Br)cc1`, for which the EC50 is 1.9 µM (active) in assay [3] and 5.47 µM (active) in the assay on Streptococcus. Turning to `Cc1cccc(NC(=O)c2cccc(Cn3cc(Br)c([N+](=O)[O-])n3)c2)c1C`, the EC50 in assay [1] is 0.834 µM (active); in assay [2], 39 µM (active). For `COc1ccc2c(c1)C(=O)N(Cc1ccco1)C(=O)/C2=C\Nc1c(C)n(C)n(-c2ccccc2)c1=O`, the values for the half-maximal activity concentration (AC50) on Cytochrome P450 3A4 and at Cytochrome P450 2C9 were 8.91 µM (inconclusive) and 7.94 µM (inconclusive), respectively. Turning to `CC1CC(C)CN(C/C=C/c2ccccc2[N+](=O)[O-])C1` (configuration not stated), the AC50 at Cytochrome P450 3A4 is 25.1 µM (inconclusive); on Cytochrome P450 1A2, 14.1 µM (inconclusive); at Cytochrome P450 2C9 it was 1.58 µM (inconclusive). `CCc1nnc2sc(-c3ccc(NC(=O)c4ccco4)cc3)nn12`: the AC50 is 0.708 µM (inconclusive) on Cytochrome P450 3A4 and 14.1 µM (inconclusive) at Cytochrome P450 1A2. Turning to `CN1CCCC2(CCN(S(=O)(=O)c3ccccc3)CC2)C1`, the AC50 on Cytochrome P450 1A2 is 20 µM (inconclusive). Turning to `COc1cccc(Nc2ncc3nc(-c4cccs4)c(=O)n(Cc4cccs4)c3n2)c1`, at Cytochrome P450 1A2, the AC50 is 2 µM (inconclusive). The same measure, in the same setting: the same measure for `O=C(CCC(=O)OCc1ccc(C(=O)Oc2ccccc2)cc1)Nc1cccc2ccccc12`: 8.91 µM (inconclusive). In the case of `Cn1c(=O)c(-c2cccs2)nc2cncnc21`, at Cytochrome P450 2C9, the half-maximal activity concentration (AC50) is 39.8 µM (inconclusive). Same read-out and setting: then `CCc1sc(-c2c(C#N)c(N)nc3c2CCCCCC3)cc1[N+](=O)[O-]`, with 2.82 µM (inconclusive). Turning to `Cc1ccc(C(=O)N/N=C/c2cn(Cc3ccccc3)c3ccccc23)cn1`, the EC50 in assay [4] was 7.88 µM (active). In the case of `Cc1nnc(C)n1/N=C/c1ccc(-c2ccccc2)cc1`, the values for the AC50 on Cytochrome P450 3A4, at Cytochrome P450 1A2 and at Cytochrome P450 2C9 were 22.4 µM (inconclusive), 10 µM (inconclusive) and 12.6 µM (inconclusive), respectively. As for `Cc1ccc(C)c(N2CCN(C(=O)c3ccc(Cn4c(=S)[nH]c5ccc(N6CCOCC6)cc5c4=O)cc3)CC2)c1`, the half-maximal effective concentration (EC50) in assay [1] was 0.458 µM (active); in assay [2] it was > 60 µM (not active).

As to `O=C(Cn1cnc2cc([N+](=O)[O-])ccc2c1=O)Nc1ccccc1-c1ccccc1`, the EC50 in assay [1] is 0.629 µM (active); in assay [2] it was > 30 µM (not active).

In the case of `COc1ccccc1C(=O)NNC(=O)C(=O)Nc1ccc(C)c(Cl)c1`, the values for the 50% effective concentration (EC50) (in assay [3]; in the assay with Streptococcus) were 1.73 µM (active) and 3.87 µM (active), respectively.

Take `Clc1ccc(OCCCCCN2CCCC2)c(Br)c1`: the EC50 in assay [1] was 0.231 µM (active); in assay [2] it was 10.9 µM (active). `COc1ccc(-c2csc3c2[N+]2=CCC=C2C3[O-])cc1` (configuration not stated): the AC50 on Cytochrome P450 3A4 was 3.16 µM (inconclusive); on Cytochrome P450 2C9, 6.31 µM (inconclusive). For `FC(F)(F)c1nc2ccc(SSc3ccc4nc(C(F)(F)F)[nH]c4c3)cc2[nH]1`, the half-maximal activity concentration (AC50) was 0.501 µM (inconclusive) on Cytochrome P450 1A2 and 7.94 µM (inconclusive) on Cytochrome P450 2C9. As to `CN(C)c1ncc2nc(-c3ccc(F)cc3)c(=O)n(C3CC3)c2n1`, the AC50 on Cytochrome P450 2C9 was 0.251 µM (inconclusive). `O=C(CSCc1ccccc1Cl)NNC(=O)c1ccccc1`: the values for the AC50 on Cytochrome P450 3A4 and at Cytochrome P450 1A2 were 11.2 µM (inconclusive) and 15.8 µM (inconclusive), respectively. Consider `CCc1ccc(OCC(=O)OC2CCS(=O)(=O)C2)cc1` (configuration not stated), for which, at Cytochrome P450 1A2, the AC50 was 12.6 µM (inconclusive). For `O=[N+]([O-])c1ccc([C@@H](Nc2ccccc2)c2ccc3cccnc3c2O)cc1`, the AC50 on Cytochrome P450 2C9 is 6.31 µM (inconclusive). On to `C=CC[C@@H]1C=C[C@@H](O/N=C\C[C@@H]2C=C[C@H](OC(C)=O)[C@H](COC(C)=O)O2)[C@@H](CO)O1`, for which the concentration at half-maximal activity (AC50) on Cytochrome P450 3A4 was 3.98 µM (inconclusive).

For the compound `COc1ccccc1CN1CCCC(C(=O)c2ccccc2SC)C1` (configuration not stated), the half-maximal effective concentration (EC50) was 1.6 µM (active) in assay [1] and > 60 µM (not active) in assay [2]. Regarding `CCCCCCCC(=O)O[C@H](CC(=O)O)C[N+](C)(C)C` [OCTANOYLCARNITINE], the half-maximal activity concentration (AC50) at Cytochrome P450 1A2 is 31.6 µM (inconclusive).
